{"source": "patent US8716184B2", "about": "“Herbicidal composition comprising the hydrates of saflufenacil and glyphosate or glufosinate” (Bayer Cropscience AG, priority 2010, dated 2014)", "assay_type_in_all_cases": "in vivo", "key": {"Digitaria sanguinalis": {"system": "Digitaria sanguinalis", "assay": "Herbicidal action on Digitaria sanguinalis (Table 1)", "procedure": "(§1) The herbicidal efficacy of the active compounds or active compound mixtures was scored visually by comparing the treated pots (soil) with untreated controls. The damage and development of all above-ground plant parts was recorded. Scoring was done on a percentage scale (example values: 100% action=all plants dead or not emerged; 50% action=50% of the plants and green plant parts dead or not emerged; 0% action=no discernible action=like control plot). The score figures of in any case 2 repetitions (pots) were averaged.\n(§2) When applying the combinations according to the invention, herbicidal effects are frequently observed on a harmful plant species which exceed the formal total of the effects of the herbicides present when these are applied by themselves. Alternatively, it is observed in some cases that a lower application rate is required for the herbicide combination in order to achieve the same effect on a harmful plant species in comparison with the individual products. […] When the data observed already exceed the formal total of the data in the experiments with individual applications, they likewise exceed the expected value according to Colby, which is calculated using the formula below and is likewise regarded as an indication of synergism (cf. S. R. Colby; in Weeds 15 (1967) pp. 20 to 22): E=A+B−(A·B/100)"}, "Cirsium Arvense": {"system": "Cirsium Arvense", "assay": "Herbicidal action on Cirsium arvense (Table 2a)", "procedure": "as §1, §2"}, "Setaria viridis": {"system": "Setaria viridis", "assay": "Herbicidal action, monocotyledonous weeds, Setaria viridis (Table 2c)", "conditions": "applied at 1-2 leaf stage, scoring 28 days after application", "procedure": "as §1\n(§3) Seeds or rhizome pieces of monocotyledonous and dicotyledonous weeds are placed in sandy loam in pots, covered with soil and grown in the greenhouse under good growth conditions (temperature, atmospheric humidity, water supply). […] The compositions according to the invention, formulated as wettable powders or emulsion concentrates, are sprayed onto the green plant parts in various dosages using an application rate of 300 to 800 L of water/ha (converted). After the test plants have remained in the greenhouse under optimum growth conditions for about 3 to 4 weeks, the effect of the preparations is scored visually in comparison with untreated controls (scoring as in Example 1). The compositions according to the invention also have good herbicidal post-emergence action against a broad spectrum of economically important weed grasses and broad-leaf weeds. […]"}, "Xanthium strumarium": {"system": "Xanthium strumarium", "assay": "Herbicidal action, dicotyledonous weeds, Xanthium strumarium (Table 2b)", "conditions": "applied at 2-3 leaf stage, scoring 28 days after application", "procedure": "as §1\n(§4) Seeds or rhizome pieces of monocotyledonous and dicotyledonous weeds are placed in sandy loam in pots, covered with soil and grown in the greenhouse under good growth conditions (temperature, atmospheric humidity, water supply). Three weeks after sowing, the test plants are treated in the three-leaf stage with the compositions according to the invention. The compositions according to the invention, formulated as wettable powders or emulsion concentrates, are sprayed onto the green plant parts in various dosages using an application rate of 300 to 800 L of water/ha (converted). After the test plants have remained in the greenhouse under optimum growth conditions for about 3 to 4 weeks, the effect of the preparations is scored visually in comparison with untreated controls (scoring as in Example 1). […]"}, "Abutilon teophrastis": {"system": "Abutilon teophrastis", "assay": "Herbicidal action, dicotyledonous weeds, Abutilon teophrastis (Table 2b)", "conditions": "applied at 2-3 leaf stage, scoring 28 days after application", "procedure": "as §1, §4"}, "Setaria faberii": {"system": "Setaria faberii", "assay": "Herbicidal action, monocotyledonous weeds, Setaria faberii (Table 2c)", "conditions": "applied at 1-2 leaf stage, scoring 28 days after application", "procedure": "as §1, §3"}, "Bidens pinata": {"system": "Bidens pinata", "assay": "Herbicidal action on Bidens pinata (Table 3)", "procedure": "as §1, §2"}, "Euphorbia heterophylla": {"system": "Euphorbia heterophylla", "assay": "Herbicidal action, dicotyledonous weeds, Euphorbia heterophylla (Table 2b)", "conditions": "applied at 2-3 leaf stage, scoring 28 days after application", "procedure": "as §1, §4"}}}
{"smiles": "CC(C)N(C)S(=O)(=O)NC(=O)c1cc(-n2c(=O)cc(C(F)(F)F)n(C)c2=O)c(F)cc1Cl", "note": "[Compound of the formula (I) (amorphous), 2-chloro-5-[3,6-dihydro-3-methyl-2,6-dioxo-4-(trifluoromethyl)-1-(2H)-pyrimidinyl]-4-fluoro-N-[[methyl-(1-methylethyl)amino]sulfonyl]benzamide]", "values": [{"measurement": "Herbicidal action [%] on Digitaria sanguinalis", "setting": "Digitaria sanguinalis; dose 25 g AS/ha", "value": 0, "unit": "%"}, {"measurement": "Herbicidal action [%] Cirsium Arvense", "setting": "Cirsium Arvense; dose 25 g AS/ha", "value": 55, "unit": "%"}]}
{"smiles": "CP(=O)(O)CCC(N)C(=O)O", "note": "(centres unmarked) [Glufosinate-ammonium (A2a), glufosinate-ammonium]", "values": [{"measurement": "Herbicidal action [%] on Digitaria sanguinalis", "setting": "Digitaria sanguinalis; dose 450 g AS/ha", "value": 15, "unit": "%"}]}
{"smiles": "CC(C)N.O=C(O)CNCP(=O)(O)O", "note": "[Glyphosate-isopropylammonium (A1b), glyphosate-isopropylammonium]", "values": [{"measurement": "Herbicidal action [%] Setaria viridis", "setting": "Setaria viridis; dose 100 g AS/ha", "value": 20, "unit": "%"}, {"measurement": "Herbicidal action [%] Xanthium strumarium", "setting": "Xanthium strumarium; dose 100 g AS/ha", "value": 10, "unit": "%"}, {"measurement": "Herbicidal action [%] Abutilon teophrastis", "setting": "Abutilon teophrastis; dose 100 g AS/ha", "value": 10, "unit": "%"}, {"measurement": "Herbicidal action [%] Setaria faberii", "setting": "Setaria faberii; dose 100 g AS/ha", "value": 10, "unit": "%"}, {"measurement": "Herbicidal action [%] Bidens pinata", "setting": "Bidens pinata; dose 100 g AS/ha", "value": 10, "unit": "%"}, {"measurement": "Herbicidal action [%] Euphorbia heterophylla", "setting": "Euphorbia heterophylla; dose 100 g AS/ha", "value": 10, "unit": "%"}, {"measurement": "Herbicidal action [%] Cirsium Arvense", "setting": "Cirsium Arvense; dose 675 g AS/ha", "value": 25, "unit": "%"}]}
{"smiles": "CC(C)N(C)S(=O)(=O)NC(=O)c1cc(-n2c(=O)cc(C(F)(F)F)n(C)c2=O)c(F)cc1Cl", "note": "[Hydrate of the compound of the formula (I) = (Ba)] [2-chloro-5-[3,6-dihydro-3-methyl-2,6-dioxo-4-(trifluoromethyl)-1-(2H)-pyrimidinyl]-4-fluoro-N-[[methyl-(1-methylethyl)amino]sulfonyl]benzamide]", "values": [{"measurement": "Herbicidal action [%] Setaria viridis", "setting": "Setaria viridis; dose 6.25 g AS/ha", "value": 25, "unit": "%"}, {"measurement": "Herbicidal action [%] Xanthium strumarium", "setting": "Xanthium strumarium; dose 6.25 g AS/ha", "value": 30, "unit": "%"}, {"measurement": "Herbicidal action [%] Abutilon teophrastis", "setting": "Abutilon teophrastis; dose 6.25 g AS/ha", "value": 75, "unit": "%"}, {"measurement": "Herbicidal action [%] Setaria faberii", "setting": "Setaria faberii; dose 6.25 g AS/ha", "value": 30, "unit": "%"}, {"measurement": "Herbicidal action [%] Bidens pinata", "setting": "Bidens pinata; dose 6.25 g AS/ha", "value": 40, "unit": "%"}, {"measurement": "Herbicidal action [%] on Digitaria sanguinalis", "setting": "Digitaria sanguinalis; dose 25 g AS/ha", "value": 0, "unit": "%"}, {"measurement": "Herbicidal action [%] Euphorbia heterophylla", "setting": "Euphorbia heterophylla; dose 6.25 g AS/ha", "value": 30, "unit": "%"}, {"measurement": "Herbicidal action [%] Cirsium Arvense", "setting": "Cirsium Arvense; dose 25 g AS/ha", "value": 45, "unit": "%"}]}
{"smiles": "COCc1cnc(C2=NC(C)(C(C)C)C(=O)N2)c(C(=O)O)c1", "note": "(centres unmarked) [Imazamox (C18), imazamox]", "values": [{"measurement": "Herbicidal action [%] Bidens pinata", "setting": "Bidens pinata; dose 0.5 g AS/ha", "value": 0, "unit": "%"}, {"measurement": "Herbicidal action [%] Bidens pinata", "setting": "Bidens pinata; dose 0.5 g AS/ha, listed as imazamox (C18)", "value": "no herbicidal action"}]}
